Columns and labels:
[1] = Dissolution rate in buffer solution HCl-KCl pH 1.5; assay type: physicochemical; details: for Substance dissolved (concentration of tomoxiprole): buffer HCl-KCl pH 1.5
Protocol: The dissolution rate of the complex tomoxiprole-2-hydroxypropyl-beta-cyclodextrin obtained in Example 1 is determined by the following method.
In a flask provided with magnetic mixer 600 mg of tomoxiprole-2-hydroxypropyl-beta-cyclodextrin complex (corresponding to 100 mg of tomoxiprole) are added to 10 ml of a buffer solution HCl—KCl pH 1.5. Samples of the suspension are collected at intervals of time, clarified by centrifugation and the tomoxiprole concentration in the clear supernatant is determined by UV absorption at 328 nm.
The method was the same of that described above, with the exception that 100 mg of tomoxiprole were added instead of 600 mg of complex tomoxiprole/HPBCD

in vivo = details: rat, po, 5 mg/kg
Protocol: To assess whether the faster dissolution rate observed for the complex actually corresponds to a faster in vivo absorption, the pharmacokinetic behaviour of tomoxiprole (TMX) and tomoxiprole-2-hydroxypropyl-beta-cyclodextrin complex (TMX/HPBCD) in rats have been compared.
Experimental design: Two groups of four rats each have been used. To the rats of each group was orally given either a dose of 5 mg/Kg of tomoxiprole or a dose of complex tomoxiprole-2-hydroxypropyl-beta-ciclodestrin corresponding to 5 mg/Kg of active substance. […] Samples of blood were collected at 0.3, 0.6, 1, 1.5, 2 and 6 hours, and plasma separated by centrifugation. Sample processing and HPLC analyses were performed as previously described (A. Bernareggi et al. J. liquid chromatography 1984, 7, 2093-2101). The pharmacokinetic parameters calculated from the plasma levels of tomoxiprole observed with the two formulations are reported in the following Table 2

[2] = Surface wettability (water contact angle); assay type: physicochemical; details: at any pH
[3] = active doses; cited from earlier work
[4] = orally administered; cited from earlier work

Time at which the saturation concentration is reached ([1]; buffer pH 1.5): over 8 min
Substance dissolved (concentration of tomoxiprole) ([1]; time 0.5 min): 1 mg/mL
Substance dissolved (concentration of tomoxiprole) ([1]; time 2 min): 3 mg/mL
Substance dissolved (concentration of tomoxiprole) ([1]; time 4 min): 4 mg/mL
Substance dissolved (concentration of tomoxiprole) ([1]; time 8 min): 4.9 mg/mL
Substance dissolved (concentration of tomoxiprole) ([1]; time 12 min): 5.2 mg/mL
AUC (in vivo): 46 ng·h/mL
AUC(0-t) (in vivo): 1170 ng·h/mL
Cmax (in vivo): 220 ng/mL
Tmax (in vivo): 1.5 h
Water contact angle [2]: 81 °
SMILES: COc1ccc(-c2nc3c4ccccc4ccc3n2C(C)C)cc1 [Tomoxiprole crystals, 2-(4-methoxyphenyl)-3-(1-methylethyl)-3H-naphth[1,2-d] imidazole]
Ulcerogenic activity [3]: devoid of ulcerogenic activity
Time of maximum concentration in the blood after administration [4]: over one hour

From patent US8791269B2, “Complex of amorphous tomoxiprole and cyclodextrin with fast dissolution rate and process for the preparation thereof” (Fondazione Istituto Insubrico di Ricerca per la Vita, priority 2011, dated 2014)
